The values below come from patent publication US20130116251A1, “Novel HSP90 Inhibitor” (Nippon Kayaku Kabushiki Kaisha, priority 2005, published 2013).

Structures are written as SMILES. pIC50: −log10 of the molar value. Structures can show the parent of a compound that is named as a salt.

Assay [1] concerns Human breast cancer cells (MCF7). Put plainly: Antiproliferative activity on MCF7 cells (methylene blue method). To be noted: Homo sapiens, MCF7, 72 h, MCF7 cells, 72 hours treatment, 660 nm absorbance after methylene blue staining; read-out: Antiproliferative activity IC50. It is filed as cell-based. As to the method: Human breast cancer cells (MCF7) were treated with samples of various concentrations of known HSP90 inhibitors (that is, geldanamycin, herbimycin, radicicol and PU3) and the compounds of the present invention for 72 hours to confirm the effect of the triazole derivatives of the present invention on the cell growth. The cell ratio after the drug treatment was evaluated by measuring 660 nm absorbance by a microplate reader (BioRad) after staining the cells with the methylene blue method.
Cells were distributed to wells of 96 well plates at 2000 cells per well and treated with drugs 24 hours later. Further, the medium was removed 72 hours later and the cells were fixed by adding 50 μl of methanol and standing at room temperature for 2 minutes. After removing methanol, 100 μl of a staining solution was added and stained for 30 minutes. After washing 3 times with 200 μl of distilled water, 3% HCl solution was added, and the 660 nm absorbance of methylene blue was measured by a microplate reader (BioRad).
Next, the antiproliferative activity rate (%) was obtained by the formula (2) below.
Antiproliferative activity rate(%)=((B−A)/B)×100 Formula (2)
wherein B is 660 nm absorbance of the sample when the compound of the present invention is not added, and A is 660 nm absorbance of the sample when the compound of the present invention is added.
From the concentration of the triazole derivative of the present invention and the antiproliferative activity rate, the concentration was obtained using the above formula, at which the cell growth was suppressed by 50% by comparing with the control, and termed an IC50 value.
The antiproliferative activity rate (%) was obtained for SH-b04, SH-b05 and SH-b06 described above by a similar manner to that of the triazole derivatives of the present invention.

Assay [2] deals with HSP90 client protein Her2 in MCF7 cells. Put plainly: Measurement test for amount of HSP90 client protein Her2 (Western blotting). The following applies: MCF7 cells treated 16 hours at 3-5 concentrations. The format is cell-based. How it is done:
(§1) MCF7 cells (American Type Culture Collection, Rockville, Md.) were treated with the compounds of the present invention at various concentrations for 16 hours to confirm that the HSP90 inhibitors of the present invention induce a depression of intracellular concentration of the client protein or target polypeptide that bind to HSP90. The amount of the HSP90 client protein Her2 and ERα was evaluated by the Western blotting method.
(§2) One million cells were seeded in a 6 cm dish, and 24 hours later the compounds of the present invention (Example 1-2, Example 2-1, Example 2-13, Example 2-2, Example 3-4, Example 2-5, Example 3-16, Example 3-6, Example 2-7, Example 3-27, Example 2-10 and Example 3-18) were added. Cells treated with the compounds were washed, mixed with 150 μl of lysis buffer (RIPA, 150 mM NaCl, 1% NP40, 0.1% deoxycholate (sodium salt), 0.1% SDS, 1 mM EDTA, 10 mM Tris-HCl (pH 8.0)) and incubated at 4° C. for 30 minutes. The cell lysates were centrifuged (15,000 rpm, 20 minutes) and protein (20 μg) of the supernatant was subjected to SDS polyacrylamide gel electrophoresis (SDS-PAGE). After finishing the electrophoresis, proteins in the gel were transferred to a PVDF membrane. The membrane after the transfer was treated with a primary antibody against the HSP90 client protein (anti Her2 or anti ERa antibody, both from Santa Cruz Biotechnology, Santa Cruz, Calif.), then treated with secondary antibodies (anti-rabbit Ig, horse radish peroxidase conjugated F(ab′)2 fragment (derived from donkey): Amersham Biosciences, UK Limited, Buckinghamhshire, UK.) and then the amount of the client protein was detected as the intensity of chemiluminescence signal with a chemiluminescence reagent (ECL: Amersham Biosciences UK Limited, Buckinghamshire, UK).
For orientation: In western blotting, separated proteins are transferred to a membrane and probed.

The next assay addresses rHSP90. Put plainly: HSP90 binding assay (BIACORE SPR; inhibition of binding between rHSP90 and fixed herbimycin A). To be noted: concentration inhibiting binding between rHSP90 (50 μg/mL) and fixed herbimycin A by 50%, BIACORE-X SPR; read-out: HSP90 inhibitory activity IC50. From the text:
The HSP90 binding assay system is a system for detecting the change of mass as SPR signal caused by the binding between herbimycin A fixed on a sensor chip and rHSP90 by BIACORE-X, in which 17-(6-amino hexylamino)herbimycin A is fixed through a carboxyl group on the surface of the sensor chip (CM5, BIACORE) on which carboxymethyldextran has been introduced. The method was according to the protocol of BIACORE. In addition, 17-(6-aminohexylamino)herbimycin A was synthesizes as described below.
rHSP90 (Stressgen Biotechnologies Corp., Victoria, BC Canada) at 50 μg/mL was exposed for 10 seconds to the surface of the sensor chip on which herbimycin A was fixed and the SPR signal (numerical value of interaction) was detected.
After mixing rHSP90 protein (5×10^−7M (50 μg/mL)) with the triazole derivative of the present invention, the mixture was exposed for 10 seconds to the surface of the sensor chip on which herbimycin A was fixed, and the SPR signal was measured by BIACORE-X.
Next, using following formula (1), the inhibitory activity (binding inhibition rate (%)) of the compound of the present invention to the binding between rHSP90 and fixed herbimycin A was obtained.
binding inhibition rate(%)=((b−s)/b)×100 Formula (1)
wherein b is the SPR signal when the compound of the present invention is not added to the sample: s is the SPR signal when the compound of the present invention is added to the sample.
(In general: In SPR one partner is held on a chip, and binding of the other changes the refractive index at the surface.)

Assay [3] relates to HSP90 client protein ERα in MCF7 cells. Put plainly: Measurement test for amount of HSP90 client protein ERα (Western blotting). It is filed as cell-based. To be noted: MCF7 cells treated 16 hours at 3-5 concentrations. As to the method:
as §1, §2

The test system of another assay is Human lung cancer H460. In words: Antitumor effect on nude mice transplanted with human lung cancer H460. It is filed as in vivo. The following applies: tail vein, starting day = 1.0. How it is done:
Antitumor Effect on Nude Mice Transplanted with Human Lung Cancer
Human lung cancer H460 tumor fragment, which had been passaged subcutaneously in nude mice, was made into about 3 mm fragment and transplanted subcutaneously to the back of nude mice using a trocar. When the tumor volume grew to about 50 mm^3 or above, the compound of the present invention was administered to the tail vein once a day for 5 or 7 days every day. The compound of the present invention was dissolved in DMSO, mixed with TWEEN 80, and then diluted with a 5% glucose injection solution and used. The vehicle of the compound was administered to the control group of OH-a01. The control groups in other experiments were not treated. The tumor volume was measured on the first administration day and on the evaluation day (7 or 8 days after the start of the administration), and the relative tumor volume of the evaluation day was obtained from the tumor volume on the first administration day. Further, the tumor volume was calculated by measuring the major axis (Lmm) and minor axis (Wmm) of the tumor and by the formula (L×W^2)/2.
Relative tumor volume represents the average relative tumor volume on day 7 after the start of the administration, assuming the tumor volume of the starting day is 1.0.
Relative tumor volume represents the average relative tumor volume on day 8 after the start of the administration, assuming the tumor volume of the starting day is 1.0.

Take `COc1ccc(-n2c(NS(C)(=O)=O)nnc2-c2cc(C(C)C)c(O)cc2O)cc1` [Example N1-a08, N-[5-(2,4-dihydroxy-5-isopropyl-phenyl)-4-(4-methoxy-phenyl)-4H-[1,2,4]triazol-3-yl]-methanesulfonamide]: the negative-log IC50 (pIC50) in assay [1] was 6.74; at rHSP90, 6.54. Further, the “amount of HSP90 client protein Her2” value in assay [2] is on record as “depression”. The “amount of HSP90 client protein ERα” value in assay [3] is “depression”.

Consider `CC(C)c1cc(-c2n[nH]c(=O)n2-c2ccc(N3CCOCC3)cc2)c(O)cc1O` [OH-a01, 4-{5-hydroxy-4-[4-(morpholin-4-yl)-phenyl]-4H-[1,2,4]triazol-3-yl}-6-isopropyl-benzene-1,3-diol], for which the pIC50 in assay [1] was 8.31; at rHSP90 it was 6.85. Also, the “Relative tumor volume (Average ± SD)” value in the assay with Human lung cancer H460 (Table 8, 3.8 mg/kg/day, 7 days continuous, day 7, control group 7.3 ± 1.7) is 3.3 ± 0.7; in the assay on Human lung cancer H460 (Table 8, 7.5 mg/kg/day, 7 days continuous, day 7, control group 7.3 ± 1.7), 1.7 ± 0.5. Moreover, the “amount of HSP90 client protein Her2” value in assay [2] was “depression”. In addition, in assay [3], the “amount of HSP90 client protein ERα” value is reported as “depression”.

In the case of `CC(C)c1cc(-c2n[nH]c(=O)n2-c2ccc(CN3CCOCC3)cc2)c(O)cc1O` [OH-a02, 4-{5-hydroxy-4-[4-(morpholin-4-ylmethyl)-phenyl]-4H-[1,2,4]triazol-3-yl}-6-isopropyl-benzene-1,3-diol], the pIC50 was 7.80 in assay [1] and 6.74 at rHSP90. The “Relative tumor volume (Average ± SD)” value with Human lung cancer H460 (Table 9, 75 mg/kg/day, 5 days continuous, day 8, control group 4.6 ± 3.1) is reported as 3.5 ± 2.3; in the assay with Human lung cancer H460 (Table 9, 150 mg/kg/day, 5 days continuous, day 8, control group 4.6 ± 3.1), 2.1 ± 0.1. Besides, the “amount of HSP90 client protein Her2” value in assay [2] is recorded as “depression”. Moreover, the “amount of HSP90 client protein ERα” value in assay [3] is “depression”.

Turning to `CC(C)c1cc(-c2n[nH]c(=O)n2-c2ccc(O)cc2)c(O)cc1O` [OH-a11, 5-(2,4-dihydroxy-5-isopropylphenyl)-4-(4-hydroxyphenyl)-4H-[1,2,4]triazol-3-one], the negative logarithm of the IC50 (pIC50) in assay [1] was 7.11; on rHSP90, 6.66. The “amount of HSP90 client protein Her2” value in assay [2] is “depression”. Besides, the “amount of HSP90 client protein ERα” value in assay [3] was “depression”.

As to `CC(C)c1cc(-c2n[nH]c(=O)n2-c2ccc(CN3CCN(C)CC3)cc2)c(O)cc1O` [OH-a13, 5-(2,4-dihydroxy-5-isopropylphenyl)-4-[4-(4-methylpiperazin-1-ylmethyl)phenyl]-2,4-dihydro-[1,2,4]triazol-3-one], the pIC50 in assay [1] was 7.15; on rHSP90, 6.60. Also, the “Relative tumor volume (Average ± SD)” value was determined as 1.4 ± 0.5 with Human lung cancer H460 (Table 10, 50 mg/kg/day, 5 days continuous, day 8, control group 6.5 ± 2.0) and 1.1 ± 0.3 in the assay with Human lung cancer H460 (Table 10, 100 mg/kg/day, 5 days continuous, day 8, control group 6.5 ± 2.0). In assay [2], the “amount of HSP90 client protein Her2” value is recorded as “depression”. Besides, the “amount of HSP90 client protein ERα” value in assay [3] is “depression”.

For the molecule `COc1ccc(-n2c(-c3cc(C(C)C)c(O)cc3O)nnc2S(=O)(=O)CCCN(C)C)cc1` [SFN2-a08, 4-[5-(3-dimethylamino-propane-1-sulfonyl)-4-(4-methoxy-phenyl)-4H-[1,2,4]triazol-3-yl]-6-isopropyl-benzene-1,3-diol], the figures for the pIC50 (in assay [1]; on rHSP90) were 7.16 and 6.15, respectively. For the same molecule, the “amount of HSP90 client protein Her2” value in assay [2] is “depression”. Also, the “amount of HSP90 client protein ERα” value in assay [3] is recorded as “depression”.

Turning to `CC(C)c1cc(-c2nnc(S(C)(=O)=O)n2-c2ccc(CN3CCOCC3)cc2)c(O)cc1O` [SFN-a02, 4-isopropyl-6-{5-methanesulfonyl-4-[4-(morpholin-4-ylmethyl)-phenyl]-4H-[1,2,4]triazol-3-yl}-benzene-1,3-diol], the pIC50 in assay [1] is 6.82; on rHSP90, 6.92. The “amount of HSP90 client protein Her2” value in assay [2] is given as “depression”. In addition, in assay [3], the “amount of HSP90 client protein ERα” value is given as “depression”.

On to `COc1ccc(-n2c(-c3cc(C(C)C)c(O)cc3O)nnc2S(C)(=O)=O)cc1` [SFN-a08, 4-isopropyl-6-[5-methanesulfonyl-4-(4-methoxy-phenyl)-4H-[1,2,4]triazol-3-yl]-benzene-1,3-diol], for which the negative-log IC50 (pIC50) in assay [1] is 6.57; at rHSP90, 7.03. Moreover, the “amount of HSP90 client protein Her2” value in assay [2] is reported as “depression”. Moreover, the “amount of HSP90 client protein ERα” value in assay [3] was “depression”.

For `CC(C)c1cc(-c2n[nH]c(=S)n2-c2ccc(CN3CCOCC3)cc2)c(O)cc1O` [SH-a02, 4-isopropyl-6-{5-mercapto-4-[4-(morpholin-4-ylmethyl)-phenyl]-4H-[1,2,4]triazol-3-yl}-benzene-1,3-diol], the pIC50 in assay [1] is 7.44; at rHSP90 it was 6.62. For the same molecule, the “amount of HSP90 client protein Her2” value in assay [2] was “depression”. Also, in assay [3], the “amount of HSP90 client protein ERα” value was “depression”.

Consider `COc1ccc(-n2c(-c3cc(C(C)(C)C)c(O)cc3O)n[nH]c2=S)cc1` [SH-f08], for which the pIC50 is 5.52 in assay [1] and 6.25 at rHSP90.

On to `CSc1nnc(-c2cc(C(C)C)c(O)cc2O)n1-c1ccc(CN2CCOCC2)cc1` [SMe-a02-TF, 4-isopropyl-6-{5-methylsulfanyl-4-[4-(morpholin-4-ylmethyl)-phenyl]-4H-[1,2,4]triazol-3-yl}-benzene-1,3-diol trifluoroacetate], for which the pIC50 in assay [1] was 6.28; at rHSP90, 6.33.

Turning to `COc1ccc(-n2c(SCCN(C)C)nnc2-c2cc(C(C)C)c(O)cc2O)cc1` [SR2-a08, 4-[5-(3-dimethylamino-ethylsulfanyl)-4-(4-methoxy-phenyl)-4H-[1,2,4]triazol-3-yl]-6-isopropyl-benzene-1,3-diol], the values for the pIC50 (in assay [1]; on rHSP90) were 5.74 and 6.13, respectively.

By pIC50 is commonly meant the negative decadic logarithm of the IC50, by convention in mol/L.
